Here are results for nine compounds from ChEMBL document CHEMBL4316588, “Design, Synthesis, and Biological Evaluation of Novel DNA Gyrase-Inhibiting Spiropyrimidinetriones as Potent Antibiotics for Treatment of Infections Caused by Multidrug-Resistant Gram-Positive Bacteria” (J Med Chem, 2019).

Converted amounts (≈) assume the structure as drawn. The source made the active and inactive calls. No cut-off for these calls is given here. A value given as a limit tells only on which side of the number the result lay.

Series [1] concerns the target DNA topoisomerase 2-alpha (Homo sapiens, UniProt P11388). Description: Inhibition of human topoisomerase-2alpha using catenated DNA as substrate after 30 mins by ethidium bromide-based gel electrophoresis.
The target of another series is DNA gyrase (Staphylococcus aureus, UniProt P0A0K8+P20831).
DNA gyrase, sequence (P0A0K8 whole entry): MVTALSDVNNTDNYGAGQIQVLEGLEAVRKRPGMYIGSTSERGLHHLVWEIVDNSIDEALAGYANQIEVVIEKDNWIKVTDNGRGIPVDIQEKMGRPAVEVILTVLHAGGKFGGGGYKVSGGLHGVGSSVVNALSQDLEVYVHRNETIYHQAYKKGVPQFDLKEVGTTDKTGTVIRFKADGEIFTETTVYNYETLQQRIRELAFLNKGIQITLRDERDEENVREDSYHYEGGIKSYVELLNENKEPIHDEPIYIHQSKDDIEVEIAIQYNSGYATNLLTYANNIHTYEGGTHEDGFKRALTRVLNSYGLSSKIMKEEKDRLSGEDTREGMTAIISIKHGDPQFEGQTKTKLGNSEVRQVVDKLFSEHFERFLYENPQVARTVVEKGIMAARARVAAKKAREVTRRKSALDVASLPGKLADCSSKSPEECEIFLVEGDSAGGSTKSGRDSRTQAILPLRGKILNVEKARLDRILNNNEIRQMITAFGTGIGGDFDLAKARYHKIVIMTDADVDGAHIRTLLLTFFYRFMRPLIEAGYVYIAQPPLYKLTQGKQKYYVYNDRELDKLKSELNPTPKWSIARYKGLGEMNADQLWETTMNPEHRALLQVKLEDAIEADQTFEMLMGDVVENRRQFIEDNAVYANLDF
DNA gyrase, sequence (P20831 whole entry): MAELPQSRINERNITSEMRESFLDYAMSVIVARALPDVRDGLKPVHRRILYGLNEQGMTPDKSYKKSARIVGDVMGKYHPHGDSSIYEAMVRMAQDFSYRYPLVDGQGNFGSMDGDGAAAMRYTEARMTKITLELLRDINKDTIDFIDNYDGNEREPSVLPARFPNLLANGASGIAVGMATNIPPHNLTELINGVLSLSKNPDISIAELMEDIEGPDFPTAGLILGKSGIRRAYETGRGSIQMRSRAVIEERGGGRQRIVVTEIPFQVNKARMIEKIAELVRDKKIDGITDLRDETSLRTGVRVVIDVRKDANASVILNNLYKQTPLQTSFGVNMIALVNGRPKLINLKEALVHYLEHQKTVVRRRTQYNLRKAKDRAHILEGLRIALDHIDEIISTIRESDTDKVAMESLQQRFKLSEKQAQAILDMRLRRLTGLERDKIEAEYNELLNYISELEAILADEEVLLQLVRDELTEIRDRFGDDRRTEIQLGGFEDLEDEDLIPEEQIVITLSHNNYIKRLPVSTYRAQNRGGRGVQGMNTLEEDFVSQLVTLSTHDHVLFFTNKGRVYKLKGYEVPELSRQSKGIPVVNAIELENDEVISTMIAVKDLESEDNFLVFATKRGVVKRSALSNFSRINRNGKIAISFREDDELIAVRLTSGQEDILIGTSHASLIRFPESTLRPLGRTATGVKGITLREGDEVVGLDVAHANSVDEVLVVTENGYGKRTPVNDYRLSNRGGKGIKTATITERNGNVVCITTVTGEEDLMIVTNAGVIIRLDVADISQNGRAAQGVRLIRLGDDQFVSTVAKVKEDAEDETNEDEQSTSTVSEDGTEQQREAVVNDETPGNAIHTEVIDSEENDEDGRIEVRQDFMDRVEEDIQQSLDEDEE
Series [2] deals with Staphylococcus aureus. In words: Antibacterial activity against methicillin-sensitive Staphylococcus aureus after 18 to 20 hrs by CLSI-protocol based broth microdilution method. Format: functional.
In series [3] the test system is Staphylococcus epidermidis. In words: Antibacterial activity against methicillin-resistant Staphylococcus epidermidis after 18 to 20 hrs by CLSI-protocol based broth microdilution method. Format: functional.
The test system of series [4] is Staphylococcus aureus. Description: Antibacterial activity against methicillin-resistant Staphylococcus aureus after 18 to 20 hrs by CLSI-protocol based broth microdilution method. Format: functional.
Another series relates to Streptococcus pyogenes. Description: Antibacterial activity against Streptococcus pyogenes after 18 to 20 hrs by CLSI-protocol based broth microdilution method. The format is functional.
In another series the test system is Neisseria gonorrhoeae. In words: Antibacterial activity against Neisseria gonorrhoeae after 18 to 20 hrs by CLSI-protocol based agar microdilution method. Format: functional.
The target in series [5] is Voltage-gated inwardly rectifying potassium channel KCNH2 (Homo sapiens, UniProt Q12809). In words: Inhibition of human ERG expressed in CHO cells in at -80 mV holding potential by automated Qpatch clamp assay. Format: cell-based.
Voltage-gated inwardly rectifying potassium channel KCNH2, sequence (Q12809 whole entry): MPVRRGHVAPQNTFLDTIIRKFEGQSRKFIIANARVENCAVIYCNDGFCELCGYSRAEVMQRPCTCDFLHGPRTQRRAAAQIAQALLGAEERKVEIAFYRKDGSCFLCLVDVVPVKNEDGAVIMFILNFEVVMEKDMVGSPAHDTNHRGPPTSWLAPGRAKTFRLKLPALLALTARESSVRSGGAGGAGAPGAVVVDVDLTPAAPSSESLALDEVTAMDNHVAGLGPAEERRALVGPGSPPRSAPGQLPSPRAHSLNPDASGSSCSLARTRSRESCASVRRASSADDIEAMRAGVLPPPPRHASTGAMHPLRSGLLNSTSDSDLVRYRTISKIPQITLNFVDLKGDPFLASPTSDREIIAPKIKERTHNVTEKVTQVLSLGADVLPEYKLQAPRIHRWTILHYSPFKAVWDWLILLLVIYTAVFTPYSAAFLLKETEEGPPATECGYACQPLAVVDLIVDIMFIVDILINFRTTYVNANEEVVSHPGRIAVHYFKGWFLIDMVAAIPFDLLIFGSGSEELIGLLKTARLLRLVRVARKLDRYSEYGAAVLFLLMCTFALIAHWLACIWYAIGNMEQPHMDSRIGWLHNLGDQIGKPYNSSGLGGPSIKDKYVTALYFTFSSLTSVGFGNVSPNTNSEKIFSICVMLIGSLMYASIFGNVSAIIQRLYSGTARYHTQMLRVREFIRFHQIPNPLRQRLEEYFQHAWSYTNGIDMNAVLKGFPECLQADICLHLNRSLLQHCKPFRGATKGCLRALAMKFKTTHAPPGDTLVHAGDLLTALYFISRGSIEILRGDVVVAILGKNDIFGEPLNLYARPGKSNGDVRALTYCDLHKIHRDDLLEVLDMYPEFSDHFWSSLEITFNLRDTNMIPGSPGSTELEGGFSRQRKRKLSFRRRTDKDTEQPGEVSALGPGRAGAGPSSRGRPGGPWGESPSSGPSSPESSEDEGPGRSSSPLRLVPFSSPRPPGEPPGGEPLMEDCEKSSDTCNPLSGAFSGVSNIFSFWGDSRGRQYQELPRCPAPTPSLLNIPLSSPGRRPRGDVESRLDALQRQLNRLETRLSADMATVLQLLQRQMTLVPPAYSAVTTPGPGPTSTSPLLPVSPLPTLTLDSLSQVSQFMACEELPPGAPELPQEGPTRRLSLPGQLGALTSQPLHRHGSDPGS
In another series the test system is Streptococcus pneumoniae. Description: Antibacterial activity against penicillin-resistant Streptococcus pneumoniae after 18 to 20 hrs by CLSI-protocol based broth microdilution method. The format is functional.
The nature of series [6]: Tmax in CD1 mouse at 10 mg/kg, po by LC-MS/MS analysis. Conditions: in vivo. The format is ADME, organism-based.
For series [7], the system named is Staphylococcus epidermidis. In words: Antibacterial activity against methicillin-sensitive Staphylococcus epidermidis after 18 to 20 hrs by CLSI-protocol based broth microdilution method. The format is functional.
Series [8] can be described thus: Solubility of the compound in water incubated at 37 degC for 24 hrs by LC/MS/MS analysis. Format: physicochemical.
Series [9] is described as follows: MRT in CD1 mouse at 10 mg/kg, po by LC-MS/MS analysis. Format: ADME, organism-based. Conditions: in vivo.
Series [10] is described as follows: Cmax in CD1 mouse at 10 mg/kg, po by LC-MS/MS analysis. Conditions: in vivo. Format: ADME, organism-based. Also noted: dose 10 mg/kg, route oral.
Series [11] is described as follows: AUCt in Sprague-Dawley rat at 100 mg/kg, po by LC-MS/MS analysis. Format: ADME, organism-based. Conditions: in vivo.
A short description of series [12]: Solubility of the compound in pH 6.8 intestinal juice incubated at 37 degC for 24 hrs by LC/MS/MS analysis. Format: physicochemical.
Series [13] can be described thus: Solubility of the compound in pH 1.2 gastric juice incubated at 37 degC for 24 hrs by LC/MS/MS analysis. The format is physicochemical.
Series [14] in a line: AUCt in CD1 mouse at 10 mg/kg, po by LC-MS/MS analysis. The format is ADME, organism-based. Conditions: in vivo.
Series [15] can be described thus: Elimination half life in CD1 mouse at 10 mg/kg, po by LC-MS/MS analysis. Format: ADME, organism-based. Conditions: in vivo, read-out: beta t1/2 (converted).
Series [16] can be described thus: Oral bioavailability in Sprague-Dawley rat at 100 mg/kg by LC-MS/MS analysis. The format is ADME, organism-based. Conditions: in vivo.
The subject of series [17] is Staphylococcus aureus. Description: Antibacterial activity against methicillin-sensitive Staphylococcus aureus infected in Kunming mouse dosed subcutaneously at 0.5 and 4.0 hrs postinfection and measured at 7 to 14 days post treatment by Bliss method. Format: functional. Conditions: sc.
A short description of series [18]: Elimination half life in Sprague-Dawley rat at 100 mg/kg, po by LC-MS/MS analysis. The format is ADME, organism-based. Conditions: in vivo, read-out: beta t1/2 (converted).
The mark [19] stands for this setting: Staphylococcus aureus, read-out: MIC.
Where [20] appears, read: Streptococcus pyogenes, read-out: MIC.

DNA topoisomerase 2-alpha, sequence (P11388 whole entry): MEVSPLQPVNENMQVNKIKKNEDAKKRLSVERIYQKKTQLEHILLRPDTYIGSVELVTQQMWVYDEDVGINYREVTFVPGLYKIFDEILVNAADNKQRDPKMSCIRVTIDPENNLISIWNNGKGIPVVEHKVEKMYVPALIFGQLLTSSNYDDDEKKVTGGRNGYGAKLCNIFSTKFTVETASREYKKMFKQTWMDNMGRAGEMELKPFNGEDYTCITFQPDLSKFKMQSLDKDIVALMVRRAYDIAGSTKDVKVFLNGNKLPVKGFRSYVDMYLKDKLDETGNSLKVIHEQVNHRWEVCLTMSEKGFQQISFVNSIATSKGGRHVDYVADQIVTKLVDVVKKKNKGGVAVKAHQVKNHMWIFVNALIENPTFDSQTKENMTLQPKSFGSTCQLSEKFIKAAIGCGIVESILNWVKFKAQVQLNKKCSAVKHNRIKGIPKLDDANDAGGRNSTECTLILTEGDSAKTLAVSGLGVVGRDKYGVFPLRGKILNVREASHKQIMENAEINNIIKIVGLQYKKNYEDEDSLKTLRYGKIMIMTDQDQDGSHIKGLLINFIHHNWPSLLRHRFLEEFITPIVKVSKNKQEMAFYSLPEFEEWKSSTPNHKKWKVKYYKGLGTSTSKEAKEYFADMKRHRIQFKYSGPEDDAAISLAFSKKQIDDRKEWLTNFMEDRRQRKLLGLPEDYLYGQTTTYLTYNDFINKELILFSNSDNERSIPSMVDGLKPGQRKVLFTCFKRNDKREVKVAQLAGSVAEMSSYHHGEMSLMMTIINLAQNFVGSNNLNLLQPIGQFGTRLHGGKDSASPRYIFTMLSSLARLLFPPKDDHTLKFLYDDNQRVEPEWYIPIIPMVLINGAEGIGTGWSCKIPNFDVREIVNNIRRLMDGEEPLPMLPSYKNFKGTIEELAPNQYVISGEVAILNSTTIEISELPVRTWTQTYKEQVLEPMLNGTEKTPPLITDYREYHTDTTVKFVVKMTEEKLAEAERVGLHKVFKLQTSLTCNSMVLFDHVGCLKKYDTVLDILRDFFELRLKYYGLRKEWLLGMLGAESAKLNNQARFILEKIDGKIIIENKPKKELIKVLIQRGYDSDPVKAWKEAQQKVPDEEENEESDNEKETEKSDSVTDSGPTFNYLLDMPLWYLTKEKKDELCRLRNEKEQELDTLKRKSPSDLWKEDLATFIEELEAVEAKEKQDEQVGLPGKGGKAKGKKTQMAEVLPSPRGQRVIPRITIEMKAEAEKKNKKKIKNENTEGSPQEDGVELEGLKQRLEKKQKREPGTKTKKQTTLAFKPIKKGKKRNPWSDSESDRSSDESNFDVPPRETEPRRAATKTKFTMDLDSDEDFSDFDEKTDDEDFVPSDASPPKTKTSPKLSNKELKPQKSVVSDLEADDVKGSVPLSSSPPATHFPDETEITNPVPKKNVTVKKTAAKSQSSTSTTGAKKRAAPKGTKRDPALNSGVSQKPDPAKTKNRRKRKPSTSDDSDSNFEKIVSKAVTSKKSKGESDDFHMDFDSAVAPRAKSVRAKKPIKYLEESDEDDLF
Description for DNA gyrase: Inhibition of Staphylococcus aureus DNA gyrase supercoiling activity using relaxed pHOT-1 DNA as substrate after 60 mins by ethidium bromide-based gel electrophoresis

In the case of `CC[C@H]1CN(c2noc3c(F)c4c(cc23)CC2(C(=O)NC(=O)NC2=O)[C@H]2[C@H](C)O[C@H](C)CN42)C(=O)S1`, the 50% inhibitory concentration (IC50) in series [1] amounted to 128 µM; against DNA gyrase, 9.1 µM. For the same compound, the minimum inhibitory concentration (MIC) (in the series on Staphylococcus aureus [2] (setting [19]); in [3]; with Staphylococcus aureus [4]; with Streptococcus pyogenes (setting [20])) was less than 0.03 µg/mL each time.

With `C[C@@H]1CN2c3c(cc4c(N5C[C@@H](C)SC5=O)noc4c3F)CC3(C(=O)NC(=O)NC3=O)[C@H]2[C@H](C)O1`, the concentration for half-maximal inhibition (IC50) in series [1] is greater than 200 µM; against DNA gyrase, 15.3 µM; in series [5], greater than 40 µM. This compound also yielded an MIC50 with Neisseria gonorrhoeae of 0.03 µg/mL (≈ 0.0596 µM). The same compound came in with an MIC90 against Neisseria gonorrhoeae of 0.125 µg/mL (≈ 0.248 µM). Besides, the minimal inhibitory concentration (MIC) in series [3] was 0.03 to 0.06 µg/mL (≈ 0.0596 to 0.119 µM); in the series with Streptococcus pneumoniae, no more than 0.03 µg/mL; in the series on Staphylococcus aureus [4] it was 0.03 to 0.25 µg/mL (≈ 0.0596 to 0.497 µM); with Streptococcus pyogenes (setting [20]), less than 0.03 µg/mL. Moreover, in series [6], the Tmax stood at 0.58 h.

As to `C[C@@H]1CN2c3c(cc4c(N5CC6(CCC6)OC5=O)noc4c3F)CC3(C(=O)NC(=O)NC3=O)[C@H]2[C@H](C)O1`, the IC50 was greater than 200 µM in series [1] and 15.6 µM on DNA gyrase. Besides, the MIC was in the range of 0.06 to 0.25 µg/mL (≈ 0.117 to 0.487 µM) in [7]; 0.125 to 0.25 µg/mL (≈ 0.243 to 0.487 µM) with Staphylococcus aureus [2] (setting [19]); 0.03 to 0.25 µg/mL (≈ 0.0584 to 0.487 µM) in series [3]; 0.25 to 1 µg/mL (≈ 0.487 to 1.95 µM) in the series on Streptococcus pneumoniae; 0.06 to 1 µg/mL (≈ 0.117 to 1.95 µM) against Staphylococcus aureus [4]; 0.25 to 0.5 µg/mL (≈ 0.487 to 0.974 µM) in the series with Streptococcus pyogenes (setting [20]).

With `C[C@@H]1CN2c3c(cc4c(N5C(=O)SC[C@@H]5C)noc4c3F)CC3(C(=O)NC(=O)NC3=O)[C@H]2[C@H](C)O1`, the IC50 was greater than 200 µM in [1] and 15.6 µM on DNA gyrase. The MIC was 0.03 to 0.125 µg/mL (≈ 0.0596 to 0.248 µM) in series [7]; 0.25 to 0.5 µg/mL (≈ 0.497 to 0.993 µM) in the series with Staphylococcus aureus [2] (setting [19]); 0.06 to 0.25 µg/mL (≈ 0.119 to 0.497 µM) in series [3]; 0.125 to 1 µg/mL (≈ 0.248 to 1.99 µM) in the series with Streptococcus pneumoniae; 0.03 to 0.125 µg/mL (≈ 0.0596 to 0.248 µM) with Staphylococcus aureus [4]; 0.125 to 0.25 µg/mL (≈ 0.248 to 0.497 µM) with Streptococcus pyogenes (setting [20]).

For `COC[C@H]1CN(c2noc3c(F)c4c(cc23)CC2(C(=O)NC(=O)NC2=O)[C@H]2[C@H](C)O[C@H](C)CN42)C(=O)S1`, the IC50 in [1] was greater than 200 µM; against DNA gyrase, 9.4 µM; in series [5] it was greater than 40 µM. In addition, the MIC50 with Neisseria gonorrhoeae is 0.25 µg/mL (≈ 0.469 µM). In the series with Neisseria gonorrhoeae, this compound yielded an MIC90 of 0.5 µg/mL (≈ 0.937 µM). For the same compound, the MIC in series [7] is 0.03 to 0.125 µg/mL (≈ 0.0562 to 0.234 µM); in the series with Staphylococcus aureus [2] (setting [19]), 0.03 to 0.25 µg/mL (≈ 0.0562 to 0.469 µM); in [3], less than 0.03 µg/mL; in the series with Staphylococcus aureus [4], 0.03 to 0.5 µg/mL (≈ 0.0562 to 0.937 µM); in the series on Streptococcus pyogenes (setting [20]), 0.25 to 0.5 µg/mL (≈ 0.469 to 0.937 µM). Moreover, the Tmax in series [6] was 0.58 h.

As to `C[C@@H]1CN2c3c(cc4c(N5C[C@H](C)SC5=O)noc4c3F)CC3(C(=O)NC(=O)NC3=O)[C@H]2[C@H](C)O1`, the results for the solubility at 24 h in [8], in series [12] and in [13] were 10.2 µM (≈ 5.14 µg/mL), 11.3 µM (≈ 5.69 µg/mL) and 9.4 µM (≈ 4.73 µg/mL), respectively. Moreover, the values for the IC50 (in series [1]; against DNA gyrase; in series [5]) were greater than 200 µM, 12.6 µM and greater than 40 µM, respectively. In the series with Neisseria gonorrhoeae, this compound returned an MIC50 of 0.06 µg/mL (≈ 0.119 µM). This compound also had an MIC90 in the series with Neisseria gonorrhoeae of 0.125 µg/mL (≈ 0.248 µM). For the same compound, the MRT in [9] turned out to be 11.4 h. Further, the minimal inhibitory concentration (MIC) (in [7]; in series [3]; against Streptococcus pneumoniae; in the series on Streptococcus pyogenes (setting [20])) was less than 0.03 µg/mL throughout. In series [10], the highest level (Cmax) was 2080 ng/mL. The figures for the AUC(0-t) in series [11] and in series [14] were 452 µg·h/mL and 22.5 µg·h/mL, respectively. For the same compound, the half-life is 7.68 h in series [15] and 8.63 h in [18]. Moreover, the Tmax in [6] worked out at 1.33 h. Further, the bioavailability in series [16] is 52.7%. It took a dose of 9.59 mg/kg to reach the 50% effect level in the series with Staphylococcus aureus [17] (ED50).

As to `C[C@@H]1CN2c3c(cc4c(N5C(=O)OCC5(C)C)noc4c3F)CC3(C(=O)NC(=O)NC3=O)[C@H]2[C@H](C)O1` (racemic), the minimum inhibitory concentration (MIC) (in [7]; with Staphylococcus aureus [2] (setting [19]); in series [3]; with Streptococcus pneumoniae; in the series with Staphylococcus aureus [4]; in the series with Streptococcus pyogenes (setting [20])) was 16 µg/mL (≈ 31.9 µM) in each case.

Consider `C[C@@H]1CN2c3c(cc4c(N5C[C@H](CN=[N+]=[N-])SC5=O)noc4c3F)CC3(C(=O)NC(=O)NC3=O)[C@H]2[C@H](C)O1`, for which the MIC in series [7] was 0.03 to 0.25 µg/mL (≈ 0.0551 to 0.459 µM); with Staphylococcus aureus [2] (setting [19]) it was 0.06 to 0.25 µg/mL (≈ 0.11 to 0.459 µM); in series [3], 0.03 to 0.125 µg/mL (≈ 0.0551 to 0.23 µM); against Streptococcus pneumoniae, 0.125 µg/mL (≈ 0.23 µM); against Staphylococcus aureus [4], 0.25 to 0.5 µg/mL (≈ 0.459 to 0.918 µM); in the series on Streptococcus pyogenes (setting [20]), 0.125 to 1 µg/mL (≈ 0.23 to 1.84 µM).

As for `C[C@@H]1CN2c3c(cc4c(N5CCOC5=O)ncnc4c3F)CC3(C(=O)NC(=O)NC3=O)[C@H]2[C@H](C)O1` (relative stereo), the MIC result (in series [7]; in the series with Staphylococcus aureus [2]; in [3]; with Streptococcus pneumoniae; in the series with Staphylococcus aureus [4]; in the series with Streptococcus pyogenes) was “inactive” throughout.
